Assay results: patent publication US8853146B2, “Hapten compounds and compositions and uses thereof” (The Board of Trustees of the University of Arkansas, priority 2007, dated 2014)

Columns and labels:
Parameters in all cases: species or system mouse
Details in all cases: RIA IC50 value for METH/RIA IC50 value for test ligand
mAb4G9 = test: RIA cross-reactivity profile, inhibition of [3H]-(+)METH binding to mAb4G9
Method: (§1) KD values for mAb were determined by the method of Akera and Cheng (1977, Biochim Biophys Acta 470:412-423).

mAb6H4 = test: RIA cross-reactivity profile, inhibition of [3H]-(+)METH binding to mAb6H4
Method: as §1

mAb6H8 = test: RIA cross-reactivity profile, inhibition of [3H]-(+)METH binding to mAb6H8
Method: as §1

Row | Molecule | Antibody Specificity (Relative Potency to METH), mAb4G9 (mAb4G9) | Antibody Specificity (Relative Potency to METH), mAb6H4 (mAb6H4) | Antibody Specificity (Relative Potency to METH), mAb6H8 (mAb6H8)
1 | CC(N)Cc1ccccc1 (single isomer, unassigned; (+)) [(+)AMP, (+)-amphetamine] | 0.34 | 0.001 | 0.023
2 | CC(N)Cc1ccc2c(c1)OCO2 (single isomer, unassigned; (+)) [(+)MDA] | 0.090 | 0.001 | 0.024
3 | CNC(C)Cc1ccc2c(c1)OCO2 (single isomer, unassigned; (+)) [(+)MDMA, (+)-3,4-methylenedioxymethamphetamine] | 0.29 | 1.25 | 3.40
4 | CC(N)C(O)c1ccccc1 (single isomer, unassigned; (+)) [(+)phenylpropanolamine] | <0.001 | <0.001 | <0.001
5 | CC(N)Cc1ccccc1 (single isomer, unassigned; (-)) [(−)AMP, (−)amphetamine] | 0.063 | <0.001 | 0.003
6 | CC(N)Cc1ccc2c(c1)OCO2 (single isomer, unassigned; (-)) [(−)MDA] | 0.002 | <0.001 | <0.001
7 | CNC(C)Cc1ccc2c(c1)OCO2 (single isomer, unassigned; (-)) [(−)MDMA] | 0.011 | 0.007 | 0.018
8 | CNC(C)Cc1ccc(O)cc1 (stereo not drawn) [4-OH-METH] | 0.106 | 0.588 | 0.294
9 | CN[C@H](C)[C@@H](O)c1ccccc1 [(+)ephedrine] | <0.001 | <0.001 | <0.001
10 | NCCc1ccc(O)c(O)c1 [dopamine] | <0.001 | <0.001 | <0.001
11 | CNC[C@H](O)c1ccc(O)c(O)c1 [epinephrine] | <0.001 | <0.001 | <0.001
12 | CNC[C@H](O)c1cccc(O)c1 [l-phenylphrine] | <0.001 | 0.001 | <0.001
13 | NC[C@H](O)c1ccc(O)c(O)c1 [norepinepherine] | <0.001 | <0.001 | <0.001
14 | NCCc1c[nH]c2ccc(O)cc12 [serotonin] | <0.001 | <0.001 | <0.001
15 | NCCc1ccc(O)cc1 [tyramine] | <0.001 | <0.001 | <0.001
16 | NCCc1ccccc1 [β-phenylethylamine] | 0.001 | <0.001 | <0.001
17 | (+)norpseudoephedrine | <0.001 | <0.001 | <0.001
18 | (+)pseudoephedrine | 0.004 | <0.001 | 0.018
19 | (−)-methamphetamine [(−)METH] | 0.102 | 0.030 | 0.011
